Experimental data as given in PubChem BioAssay AID1963854 (Molecular Pharmacology Branch, DTP, NCI, 2024).
pIC50: −log10 of the molar value. Where “and” joins values, the source holds several entries; their conditions need not be identical. Equal entries are not always repeated.

Test system: 186277-243-T-J2-PDC complex spheroid viability
Assay: Anticancer human tumor 186277-243-T-J2-PDC patient-derived colon adenocarcinoma cell line growth inhibition [POLQ]
Conditions: for viability, T/C: stronger effect = lower value; active = viability on the fitted dose curve at most 10% of control; inactive = the rest
Procedure: Multicellular complex tumor spheroid response to Polymerase (POL) inhibitors (novobiocin, ART-558, RP6685) in combination with a variety of drugs and investigational agents in selected tumor cell lines
The POL inhibitors (novobiocin, ART-558, and RP6685) were evaluated both individually and in combination with standard of care and investigational anticancer small molecules within a complex spheroid model of solid tumors. . Complex spheroids include a stromal component modeled by human endothelial cells (HUVEC) and fibroblasts modeled by human mesenchymal stem cells (MSCs). The concentration ranges selected for each drug and investigational agent were based upon clinically achievable concentrations if the clinical Cmax of the agent was known.
Compounds. The drugs and investigational agents: novobiocin (NSC847541), ART-558 (NSC835418), RP-6685 (NSC848927), peposertib (NSC802822), ceralasertib (NSC780249), elimusertib (NSC800525), camonsertib (NSC841442), AZD-1390 (NSC803789), olaparib (NSC753686), talazoparib (NSC767125), rucaparib (NSC756644), sotorasib (NSC818433), MRTX-1133 (NSC836407), SN-38 (NSC673596), topotecan (NSC609699), epotoside (NSC141540), doxorubicin (NSC123127), gemcitabine (NSC613327), 5-fluorouracil (NSC19893), paclitaxel (NSC125973), vemurafenib (NSC761431), MSA-2 (NSC828583), SN-011 (NSC837082), adavosertib (NSC754352), prexasertib (NSC758257), carboplatin (NSC241240) and oxaliplatin (NSC266046), were obtained from the National Cancer Institute (NCI) Developmental Therapeutics Program Chemical Repository (21). The FDA-approved anticancer drug set is available from the Developmental Therapeutics Program at https://dtp.cancer.gov/organization/dscb/obtaining/. […] The stock solutions were prepared in dimethyl sulfoxide (DMSO, Sigma-Aldrich, St. Louis, MO, cat. D2650), except for the platinum compounds which were prepared in saline (Quality Biological, Gaithersburg, MD, cat. 114-055-101), at 800-fold the tested concentration and stored at -70 degrees C prior to their use. All drugs and investigational agents were tested over a range starting from a high concentration at or near the clinical Cmax and decreasing in half-log increments. If the clinical Cmax for an agent had not been determined, the highest concentration tested was 10 microM, except for SN-38, which was tested at a high concentration of 1 microM.
Cell Culture. All cells were maintained in an incubator at 37 degrees C and 5% CO2 with 95% humidity. The PDC lines were cultured according to standard operating procedures established by the NCI PDMR (https://pdmr.cancer.gov). Table 3 of the manuscript, lists the cell lines along with the number of the three cell types plated to form the mct-spheroids and media for tumor cell growth. After thawing, all PDC lines, except 997537-175-T-J1-PDC and 415267-285-R-J2-PDC, were cultured in Matrigel-coated flasks prepared with a working solution of 1X Ham's F-12 nutrient mix, without supplementation (Thermo Fisher Scientific, cat. 11765054), 100 U/mL penicillin-streptomycin (Thermo Fisher Scientific, cat. 15140122), and 2.5% Matrigel (Corning Inc., Corning, NY, cat. 354248) for the first three passages. The two PDC lines 997537-175-T-J1-PDC and 415267-285-R-J2-PDC were cultured on uncoated flasks. The 857933-349-R-J2-PDC line was cultured in 6C/Colon 1B media containing advanced DMEM/F-12 (Thermo Fisher Scientific, cat. 12634028), 10 mM HEPES (Thermo Fisher Scientific, cat. 15630080), 1X GlutaMAX supplement (Thermo Fisher Scientific, cat. 35050061), 0.1 mg/mL primocin (InvivoGen, San Diego, CA, cat. ant-pm-2), 10% defined fetal bovine serum, heat inactivated (HyClone Laboratories Inc., Logan, UT, cat. SH30070.03HI), 50% L-WRN conditioned media (ATCC, cat. CRL-3276), 1.25 mM N-Acetyl-L-cysteine (Sigma-Aldrich, cat. A9165), 10 mM nicotinamide (Sigma-Aldrich, cat. N0636), 1X B-27 supplement (Thermo Fisher Scientific, cat. 17504044), 1X N-2 supplement (Thermo Fisher Scientific, cat. […]
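Also: spheroids exposed to compounds for seven days.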

CCCS(=O)(=O)Nc1ccc(F)c(C(=O)c2c[nH]c3ncc(-c4ccc(Cl)cc4)cc23)c1F
inactive: viability, T/C (compound 0.0316 µM) 93.5% and 97.3% and 96.7% | viability, T/C (compound 0.1 µM) 80.9% and 85.4% and 97.5% | viability, T/C (compound 0.316 µM) 92.2% and 94.7% and 93% | viability, T/C (compound 1 µM) 90.7% and 79.6% and 82.2% | viability, T/C (compound 3.16 µM) 82.9% and 100% and 89.3% | viability, T/C (compound 10 µM) 64.4% and 59.1% and 42.5%
< 5.00 and 5.08: pIC50 (curve of compound)

COC1C(OC(N)=O)C(O)C(Oc2ccc3c(O)c(NC(=O)c4ccc(O)c(CC=C(C)C)c4)c(=O)oc3c2C)OC1(C)C (configuration not stated)
< 5.00: pIC50 (compound alone, run of 10/31/2023)
inactive: viability, T/C (compound 0.0316 µM) 99.1% [middle of 13 runs] | viability, T/C (compound 0.1 µM) 97.7% [middle of 13 runs] | viability, T/C (compound 0.316 µM) 97.7% [middle of 13 runs] | viability, T/C (compound 3.16 µM) 103% [middle of 13 runs] | viability, T/C (compound 10 µM) 92.6% [middle of 13 runs]

CCc1c2c(nc3ccc(O)cc13)-c1cc3c(c(=O)n1C2)COC(=O)[C@]3(O)CC
inactive: viability, T/C (compound 0.00316 µM) 71.2% and 120% and 58.7% | viability, T/C (compound 0.01 µM) 48.6% and 82.9% and 43.5% | viability, T/C (compound 0.0316 µM) 25.4% and 47% and 22.2% | viability, T/C (compound 0.1 µM) 12.7% and 25.5% and 10.8%
9.65% and 21.7% and 8.26%: viability, T/C (compound 0.316 µM)
7.75% and 21.3% and 6.71%: viability, T/C (compound 1 µM)
8.03 and 7.56 and 8.21: pIC50 (curve of compound)

Cn1ncnc1[C@H]1c2n[nH]c(=O)c3cc(F)cc(c23)N[C@@H]1c1ccc(F)cc1 + Cc1cccc(N(C)C(=O)C2C(O)CCN2c2nc(C)cc(C(F)(F)F)c2C#N)c1
< 7.00: pIC50 (curve of first compound, second compound 0.0316 µM) | pIC50 (curve of first compound, second compound 0.1 µM) | pIC50 (curve of first compound, second compound 0.316 µM) | pIC50 (curve of first compound, second compound 1 µM) | pIC50 (curve of first compound, second compound 3.16 µM) | pIC50 (curve of first compound, second compound 10 µM)
inactive: viability, T/C (second compound 0.0316 µM, first compound 0.000316 µM) 101% | viability, T/C (second compound 0.0316 µM, first compound 0.001 µM) 102% | viability, T/C (second compound 0.0316 µM, first compound 0.00316 µM) 104% | viability, T/C (second compound 0.0316 µM, first compound 0.01 µM) 106% | viability, T/C (second compound 0.0316 µM, first compound 0.0316 µM) 118% | viability, T/C (second compound 0.0316 µM, first compound 0.1 µM) 120% | viability, T/C (second compound 0.1 µM, first compound 0.000316 µM) 87.9% | viability, T/C (second compound 0.1 µM, first compound 0.001 µM) 99.4% | viability, T/C (second compound 0.1 µM, first compound 0.00316 µM) 113% | viability, T/C (second compound 0.1 µM, first compound 0.01 µM) 106% | viability, T/C (second compound 0.1 µM, first compound 0.0316 µM) 113% | viability, T/C (second compound 0.1 µM, first compound 0.1 µM) 119% | viability, T/C (second compound 0.316 µM, first compound 0.000316 µM) 90.3% | viability, T/C (second compound 0.316 µM, first compound 0.001 µM) 92.6% | viability, T/C (second compound 0.316 µM, first compound 0.00316 µM) 102% | viability, T/C (second compound 0.316 µM, first compound 0.01 µM) 115% | viability, T/C (second compound 0.316 µM, first compound 0.0316 µM) 145% | viability, T/C (second compound 0.316 µM, first compound 0.1 µM) 122% | viability, T/C (second compound 1 µM, first compound 0.000316 µM) 89% | viability, T/C (second compound 1 µM, first compound 0.001 µM) 105% | viability, T/C (second compound 1 µM, first compound 0.00316 µM) 107% | viability, T/C (second compound 1 µM, first compound 0.01 µM) 117% | viability, T/C (second compound 1 µM, first compound 0.0316 µM) 119% | viability, T/C (second compound 1 µM, first compound 0.1 µM) 111% | viability, T/C (second compound 3.16 µM, first compound 0.000316 µM) 101% | viability, T/C (second compound 3.16 µM, first compound 0.001 µM) 106% | viability, T/C (second compound 3.16 µM, first compound 0.00316 µM) 111% | viability, T/C (second compound 3.16 µM, first compound 0.01 µM) 113% | viability, T/C (second compound 3.16 µM, first compound 0.0316 µM) 103% | viability, T/C (second compound 3.16 µM, first compound 0.1 µM) 105% | viability, T/C (second compound 10 µM, first compound 0.000316 µM) 99.5% | viability, T/C (second compound 10 µM, first compound 0.001 µM) 92.8% | viability, T/C (second compound 10 µM, first compound 0.00316 µM) 95.8% | viability, T/C (second compound 10 µM, first compound 0.01 µM) 116% | viability, T/C (second compound 10 µM, first compound 0.0316 µM) 113% | viability, T/C (second compound 10 µM, first compound 0.1 µM) 113%
